Test results: patent publication US8168667B2 (Galapagos NV, priority 2006, dated 2012)
Like-named read-outs stand apart in the source and are kept apart here.

Target: T1, human androgen receptor (hAR) (Homo sapiens, UniProt P10275)
T1 sequence (P10275 1-920): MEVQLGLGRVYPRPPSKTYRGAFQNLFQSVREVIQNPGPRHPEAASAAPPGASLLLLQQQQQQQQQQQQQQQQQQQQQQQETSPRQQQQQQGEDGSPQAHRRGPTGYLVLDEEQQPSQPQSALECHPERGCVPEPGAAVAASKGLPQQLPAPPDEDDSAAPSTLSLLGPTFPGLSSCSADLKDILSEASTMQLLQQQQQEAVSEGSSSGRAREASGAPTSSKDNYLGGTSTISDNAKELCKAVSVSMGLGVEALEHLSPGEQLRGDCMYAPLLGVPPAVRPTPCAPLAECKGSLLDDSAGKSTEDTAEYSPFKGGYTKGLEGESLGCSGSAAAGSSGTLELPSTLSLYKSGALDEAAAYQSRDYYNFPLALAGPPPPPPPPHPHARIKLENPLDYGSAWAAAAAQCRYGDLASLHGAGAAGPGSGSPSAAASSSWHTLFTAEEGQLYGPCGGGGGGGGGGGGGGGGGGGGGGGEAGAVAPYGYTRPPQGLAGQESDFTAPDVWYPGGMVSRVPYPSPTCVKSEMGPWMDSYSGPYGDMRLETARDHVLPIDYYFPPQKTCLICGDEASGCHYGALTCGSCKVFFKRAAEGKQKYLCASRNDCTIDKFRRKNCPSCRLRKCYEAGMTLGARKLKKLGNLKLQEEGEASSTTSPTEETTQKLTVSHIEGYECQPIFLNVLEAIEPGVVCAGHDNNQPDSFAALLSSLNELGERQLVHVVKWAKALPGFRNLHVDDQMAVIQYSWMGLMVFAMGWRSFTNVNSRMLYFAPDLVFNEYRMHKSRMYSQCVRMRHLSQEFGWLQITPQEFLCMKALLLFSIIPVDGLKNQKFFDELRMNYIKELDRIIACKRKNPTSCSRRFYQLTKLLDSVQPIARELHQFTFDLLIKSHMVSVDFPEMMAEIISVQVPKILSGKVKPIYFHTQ
Experiment: Functional response test: hAR transactivation (luciferase reporter) in HALP2 cells
Assay type: cell-based
Conditions: for EC50: agonism, HALP2 cells (HeLa, hAR + ARE-luciferase), 20 hours at 37° C.
Source text: This test constitutes a method of identifying pure or partial agonists which mimic the effects of natural hormones, such as DHT (dihydrotestosterone) in the present case or, on the other hand, antagonists which inhibit them.
For this transactivation test, plasmids encoding a reporter gene and the human androgen receptor (hAR) are introduced together by transfection into the HeLa cell line. The reporter plasmid contains luciferase cDNA under the control of the AREs contained in the promoter sequences of the probasin gene (3xpbAREminicoll-luciferase/pGL3-puro). The expression of the reporter gene constitutes an indication of the transcriptional activity of hAR. It also encodes a protein allowing the cells expressing it to resist a treatment with puromycin. The plasmid encoding hAR contains the cDNA of hAR under the control of the Cytomegalovirus (CMV) promoter. It also encodes a protein allowing the cells expressing it to resist a treatment with neomycin. The treatment of cells with increasing amounts of potentially agonistic compounds will increase the expression of the reporter gene. To detect antagonists, on the other hand, increasing doses of test compounds are tested in the presence of […] of DHT. The expression of the reporter gene, which is constant for each dose of DHT, decreases when the concentration of the test compounds increases.
For this test, HeLa cells were obtained from the American Type Culture Collection (Rockville, Md.) and cultivated in DMEM medium containing 4.5 g/l of glucose, supplemented with Glutamax and with nonessential amino-acids and with 10% of foetal calf serum (SVF; Dominique Dutscher).
On the day before transfection, a million cells were seeded in DMEM medium without phenol red, supplemented with Glutamax and with desteroided SVF (5%) in Petri dishes. The cells were transfected with 4 μg of the puromycin resistance plasmids pcDNA3-hAR and 3xpbAREminicoll-luciferase/pGL3 using the reagent “Lipofectamine plus” (Invitrogen), following the supplier's recommendations. The day after transfection, the cells were seeded to different cell densities (10,000 to 100,000 cellules per Petri dish). Two days after transfection, the transfected cells were selected in DMEM medium without phenol red, supplemented with Glutamax and with desteroided SVF (5%) containing 400 μg/mL of G418 (Invitrogen) and 150 ng/mL of puromycin (Sigma). The culture medium was renewed weekly until resistant clones appeared. The resistant clones were removed and amplified before being tested for their functional response. […]
The functional response test was conducted on 96-well plates. The HALP2 cells were seeded (30,000 cells per well) 24 hours before the phase of stimulation in DMEM medium containing 4.5 g/L of glucose, supplemented with Glutamax and nonessential amino-acids, and with desteroided SVF (5%).
On the day of stimulation, the seeding medium was replaced by DMEM medium without phenol red, supplemented with Glutamax and with desteroided SVF (5%). […] The cells were placed in contact with the compounds for 20 hours at 37° C.

[1] = antagonism, concentration which increases the EC50 of the DHT by a factor of 2, Schild regression, HALP2 cells

## CN1C(=O)N(c2ccc(C#N)c3c2CCCC3)C(=O)C1(C)c1ccc(O)cc1 (stereo not drawn) [Example 34, 8-[3,4-dimethyl-2,5-dioxo-4-(4-hydroxyphenyl)imidazolidin-1-yl]-1,2,3,4-tetrahydro-5-naphthonitrile]
  KSchild (nM) potency: 3.3 nM

## CN1C(=O)N(c2ccc(C#N)c3c2OCCO3)C(=O)C1(C)c1ccc(O)cc1 (stereo not drawn) [Example 35, 4-[3,4-dimethyl-2,5-dioxo-4-(4-hydroxyphenyl)imidazolidin-1-yl]-2,3-(1,2-ethylenedioxy)-benzonitrile]
  KSchild (nM) potency: 36.34 nM

## Cc1cc(C#N)ccc1N1C(=O)N(C)C(C)(c2ccc(O)cc2)C1=O (stereo not drawn) [Example 36, 4-[3,4-dimethyl-2,5-dioxo-4-(4-hydroxyphenyl)imidazolidin-1-yl]-3-methylbenzonitrile]
  KSchild (nM) potency: 69.28 nM

## CCc1cc(C#N)ccc1N1C(=O)N(C)C(C)(c2ccc(O)cc2)C1=O (stereo not drawn) [Example 37, 4-[3,4-dimethyl-2,5-dioxo-4-(4-hydroxyphenyl)imidazolidin-1-yl]-3-ethylbenzonitrile]
  KSchild (nM) potency: 24.49 nM

## Cc1c(N2C(=O)N(C)C(C)(c3ccc(O)cc3)C2=O)ccc(C#N)c1C(F)(F)F (stereo not drawn) [Example 38, 4-[3,4-dimethyl-2,5-dioxo-4-(4-hydroxyphenyl)imidazolidin-1-yl]-3-methyl-2-trifluoromethylbenzonitrile]
  KSchild (nM) potency: 3 nM

## C=CCN1C(=S)N(c2ccc(Cl)c(Cl)c2)C(=O)C1(C)c1ccc(O)cc1 (stereo not drawn) [Example 40, 1-(3,4-dichlorophenyl)-4-(4-hydroxyphenyl)-4-methyl-3-(2-propenyl)-2-thioxoimidazolidin-5-one]
  EC50: 3.46 nM
[1]
  KSchild (nM) potency: 1.41 nM

## C#CCN1C(=S)N(c2ccc(Cl)c(Cl)c2)C(=O)C1(C)c1ccc(O)cc1 (stereo not drawn) [Example 41, 1-(3,4-dichlorophenyl)-4-(4-hydroxyphenyl)-4-methyl-3-(2-propynyl)-2-thioxoimidazolidin-5-one]
  EC50: 25.3 nM
[1]
  KSchild (nM) potency: 15.49 nM

## CC1(c2ccc(O)cc2)C(=O)N(c2ccc(Cl)c(Cl)c2)C(=S)N1CCC#N (stereo not drawn) [Example 42, 3-[1-(3,4-dichlorophenyl)-4-(4-hydroxyphenyl)-4-methyl-5-oxo-2-thioxoimidazolidin-3-yl]-propionitrile]
  EC50: 8 nM
[1]
  KSchild (nM) potency: 4.9 nM

## CN1C(=S)N(c2ccc(C#N)c(C(F)(F)F)c2)C(=O)C1(C)c1ccc(O)cc1 (stereo not drawn) [Example 44, 4-[3,4-dimethyl-4-(4-hydroxyphenyl)-5-oxo-2-thioxoimidazolidin-1-yl]-2-trifluoromethylbenzonitrile]
  KSchild (nM) potency: 4 nM

## CN1C(=O)N(c2ccc([N+](=O)[O-])c(C(F)(F)F)c2)C(=O)C1c1ccc(O)cc1 (stereo not drawn) [Example 45]
  KSchild (nM) potency: 100 nM

## CN1C(=O)N(c2ccc(F)c(F)c2)C(=O)C1c1ccc(O)cc1 (stereo not drawn) [Example 46]
  EC50: 77.5 nM
[1]
  KSchild (nM) potency: 77.46 nM

## CN1C(=O)N(c2ccc(Cl)c(C(F)(F)F)c2)C(=O)C1c1ccc(O)cc1 (stereo not drawn) [Example 47]
  KSchild (nM) potency: 48.99 nM

## CN1C(=O)N(c2ccc(F)c(C(F)(F)F)c2)C(=O)C1c1ccc(O)cc1 (stereo not drawn) [Example 48]
  EC50: 60 nM
[1]
  KSchild (nM) potency: 48.99 nM

## CN1C(=O)N(c2ccc(F)c(Cl)c2)C(=O)C1c1ccc(O)cc1 (stereo not drawn) [Example 49]
  EC50: 69.3 nM
[1]
  KSchild (nM) potency: 42.43 nM

## CN1C(=O)N(c2ccc([N+](=O)[O-])cc2)C(=O)C1c1ccc(O)cc1 (stereo not drawn) [Example 50]
  KSchild (nM) potency: 9.9 nM

## O=C1C(c2ccc(O)cc2)N(Cc2ccsc2)C(=O)N1c1ccc(F)c(Cl)c1 (stereo not drawn) [Example 51]
  EC50: 15 nM
[1]
  KSchild (nM) potency: 15 nM

## O=C1C(c2ccc(O)cc2)N(Cc2ccsc2)C(=O)N1c1ccc([N+](=O)[O-])cc1 (stereo not drawn) [Example 53]
  KSchild (nM) potency: 9.74 nM

## CCCN1C(=O)N(c2ccc([N+](=O)[O-])c(C(F)(F)F)c2)C(=O)C1c1ccc(O)cc1 (stereo not drawn) [Example 54]
[1]
  KSchild (nM) potency: 200 nM

## CCCN1C(=O)N(c2ccc(Cl)c(Cl)c2)C(=O)C1c1ccc(O)cc1 (stereo not drawn) [Example 55]
  EC50: 54.8 nM
[1]
  KSchild (nM) potency: 34.64 nM

## CCCN1C(=O)N(c2ccc(F)c(F)c2)C(=O)C1c1ccc(O)cc1 (stereo not drawn) [Example 56]
  EC50: 34.6 nM
[1]
  KSchild (nM) potency: 34.64 nM

## CCCN1C(=O)N(c2ccc(Cl)c(C(F)(F)F)c2)C(=O)C1c1ccc(O)cc1 (stereo not drawn) [Example 57]
  KSchild (nM) potency: 34.64 nM

## CCCN1C(=O)N(c2cccc(C(F)(F)F)c2)C(=O)C1c1ccc(O)cc1 (stereo not drawn) [Example 59]
  EC50: 69.3 nM
[1]
  KSchild (nM) potency: 69.28 nM

## CCCN1C(=O)N(c2ccc(C#N)c(C(F)(F)F)c2)C(=O)C1c1ccc(O)cc1 (stereo not drawn) [Example 60]
  KSchild (nM) potency: 21.21 nM

## C=CCN1C(=O)N(c2ccc(Cl)c(C(F)(F)F)c2)C(=O)C1c1ccc(O)cc1 (stereo not drawn) [Example 61]
  EC50: 34.6 nM
[1]
  KSchild (nM) potency: 34.64 nM

## C=CCN1C(=O)N(c2ccc(F)c(C(F)(F)F)c2)C(=O)C1c1ccc(O)cc1 (stereo not drawn) [Example 62]
  EC50: 34.6 nM
[1]
  KSchild (nM) potency: 34.64 nM

## C=CCN1C(=O)N(c2ccc(F)c(Cl)c2)C(=O)C1c1ccc(O)cc1 (stereo not drawn) [Example 63]
  EC50: 69.3 nM
[1]
  KSchild (nM) potency: 69.28 nM

## C=CCN1C(=O)N(c2cccc(C(F)(F)F)c2)C(=O)C1c1ccc(O)cc1 (stereo not drawn) [Example 64]
  EC50: 26.2 nM
[1]
  KSchild (nM) potency: 26.21 nM

## C=CCN1C(=O)N(c2ccc([N+](=O)[O-])cc2)C(=O)C1c1ccc(O)cc1 (stereo not drawn) [Example 65]
  KSchild (nM) potency: 5.43 nM

## C#CCN1C(=O)N(c2ccc(Cl)c(Cl)c2)C(=O)C1c1ccc(O)cc1 (stereo not drawn) [Example 66]
  EC50: 24.5 nM
[1]
  KSchild (nM) potency: 21.21 nM

## C#CCN1C(=O)N(c2ccc(F)c(F)c2)C(=O)C1c1ccc(O)cc1 (stereo not drawn) [Example 67]
  EC50: 49 nM
[1]
  KSchild (nM) potency: 48.99 nM

## C#CCN1C(=O)N(c2ccc(Cl)c(C(F)(F)F)c2)C(=O)C1c1ccc(O)cc1 (stereo not drawn) [Example 68]
  KSchild (nM) potency: 24.49 nM

## C#CCN1C(=O)N(c2ccc(F)c(C(F)(F)F)c2)C(=O)C1c1ccc(O)cc1 (stereo not drawn) [Example 69]
  EC50: 42.4 nM
[1]
  KSchild (nM) potency: 42.43 nM

## C#CCN1C(=O)N(c2ccc(F)c(Cl)c2)C(=O)C1c1ccc(O)cc1 (stereo not drawn) [Example 70]
  EC50: 20 nM
[1]
  KSchild (nM) potency: 20 nM

## C#CCN1C(=O)N(c2ccc([N+](=O)[O-])c(C(F)(F)F)c2)C(=O)C1c1ccc(O)cc1 (stereo not drawn) [Example 71]
  KSchild (nM) potency: 300 nM

## C#CCN1C(=O)N(c2cccc(C(F)(F)F)c2)C(=O)C1c1ccc(O)cc1 (stereo not drawn) [Example 72]
  EC50: 42.4 nM
[1]
  KSchild (nM) potency: 42.43 nM

## C#CCN1C(=O)N(c2ccc([N+](=O)[O-])cc2)C(=O)C1c1ccc(O)cc1 (stereo not drawn) [Example 73]
  KSchild (nM) potency: 13.77 nM

## CCOC(=O)CCN1C(=O)N(c2ccc(C#N)c(C(F)(F)F)c2)C(=O)C1c1ccc(O)cc1 (stereo not drawn) [Example 74]
  KSchild (nM) potency: 17.32 nM

## CCOC(=O)CCN1C(=O)N(c2ccc([N+](=O)[O-])c(C(F)(F)F)c2)C(=O)C1c1ccc(O)cc1 (stereo not drawn) [Example 75]
  KSchild (nM) potency: 600 nM
